Source: the NIST ThermoML archive (doi:10.1016/j.jct.2019.05.010)
Values joined by “and” are separate entries in the source; they are usually repeats but may differ in a detail not shown here. Equal values may be shown once.

Columns and labels:
[1] = 101.33 kPa, Crystal, Vacuum adiabatic calorimetry
[2] = molar heat capacity at constant pressure; conditions: 101.33 kPa, Crystal, Vacuum adiabatic calorimetry

CC(=O)[CH-]C(C)=O.CC(=O)[CH-]C(C)=O.[Cu+2] [bis(2,4-pentanedionato-O,O')copper]
Conditions	molar entropy, [1] [J/K/mol]	molar heat capacity at constant pressure, [2]
5 K	0.229	0.667 J/K/mol
6.54 K	–	1.427 J/K/mol
9.03 K	–	3.433 J/K/mol
10 K	1.632	4.4 J/K/mol
11.38 K	–	6.016 J/K/mol
13.66 K	–	9.127 J/K/mol
15 K	4.62	11.23 J/K/mol
16.64 K	–	13.96 J/K/mol
20 K	9.07	20.52 J/K/mol and 20.5 J/K/mol
22.84 K	–	26.59 J/K/mol
25 K	14.79	31.33 J/K/mol
25.85 K	–	33.31 J/K/mol
29.17 K	–	40.64 J/K/mol
30 K	21.5	42.65 J/K/mol
32.85 K	–	49.04 J/K/mol
35 K	28.92	53.76 J/K/mol
36.85 K	–	57.9 J/K/mol
40 K	36.8	64.51 J/K/mol
40.6 K	–	65.62 J/K/mol
44.11 K	–	72.98 J/K/mol
45 K	44.99	74.72 J/K/mol
48.18 K	–	80.84 J/K/mol
50 K	53.37	84.29 J/K/mol
52.32 K	–	88.52 J/K/mol
55 K	61.8	93.1 J/K/mol
56.3 K	–	95.12 J/K/mol
60 K	70.3	101 J/K/mol
60.23 K	–	101.6 J/K/mol
64.13 K	–	107 J/K/mol
65 K	78.6	108.3 J/K/mol
68.13 K	–	112.6 J/K/mol
70 K	86.9	115.1 J/K/mol
72.3 K	–	118.2 J/K/mol
76.49 K	–	123.2 J/K/mol
80 K	103.1	127.4 J/K/mol
80.07 K	–	127.4 J/K/mol
80.38 K	–	128 J/K/mol
85.04 K	–	132.9 J/K/mol
89.68 K	–	137.8 J/K/mol
90 K	118.8	138.1 J/K/mol
94.05 K	–	142.1 J/K/mol
98.21 K	–	146 J/K/mol
100 K	133.8	147.6 J/K/mol
102.43 K	–	149.8 J/K/mol
106.73 K	–	153.5 J/K/mol
110 K	148.3	156.4 J/K/mol
110.87 K	–	157.3 J/K/mol
115.52 K	–	160.9 J/K/mol
120 K	162.3	164.5 J/K/mol
120.66 K	–	165 J/K/mol
125.63 K	–	169 J/K/mol
130 K	175.7	172.1 J/K/mol
130.45 K	–	172.4 J/K/mol
135.15 K	–	176 J/K/mol
139.73 K	–	179.1 J/K/mol
140 K	188.8	179.4 J/K/mol
144.22 K	–	182.5 J/K/mol
148.61 K	–	185.6 J/K/mol
150 K	201.4	186.6 J/K/mol
152.93 K	–	188.8 J/K/mol
157.17 K	–	191.5 J/K/mol
160 K	213.6	193.5 J/K/mol
161.35 K	–	194.4 J/K/mol
165.97 K	–	197.3 J/K/mol
170 K	225.6	199.8 J/K/mol
171.03 K	–	200.5 J/K/mol
176 K	–	203.5 J/K/mol
180 K	237.2	206.2 J/K/mol
180.9 K	–	206.9 J/K/mol
185.74 K	–	210.1 J/K/mol
190 K	248.5	213 J/K/mol
190.5 K	–	213.3 J/K/mol
195.21 K	–	216.6 J/K/mol
199.87 K	–	219.6 J/K/mol
200 K	259.6	219.6 J/K/mol
204.46 K	–	222.6 J/K/mol
209.01 K	–	225.1 J/K/mol
210 K	270.5	225.9 J/K/mol
213.51 K	–	228.2 J/K/mol
217.97 K	–	231.3 J/K/mol
220 K	281.1	232.5 J/K/mol
222.38 K	–	234.3 J/K/mol
226.74 K	–	236.8 J/K/mol
230 K	291.6	238.9 J/K/mol
231.06 K	–	239.5 J/K/mol
235.35 K	–	242.2 J/K/mol
239.58 K	–	245.1 J/K/mol
240 K	301.9	245.4 J/K/mol
243.77 K	–	247.8 J/K/mol
248.11 K	–	250.8 J/K/mol
250 K	312.1	252 J/K/mol
252.68 K	–	253.8 J/K/mol
257.27 K	–	256.6 J/K/mol
260 K	322.1	258.5 J/K/mol
261.9 K	–	259.8 J/K/mol
266.49 K	–	262.7 J/K/mol
270 K	331.9	265.2 J/K/mol
271.04 K	–	266.1 J/K/mol
275.54 K	–	268.5 J/K/mol
280 K	341.7	271.7 J/K/mol
280.45 K	–	272.3 J/K/mol
285.75 K	–	275.1 J/K/mol
290 K	351.4	278.3 J/K/mol
291 K	–	279 J/K/mol
296.16 K	–	282.5 J/K/mol
298.15 K	359.1	283.9 J/K/mol
300 K	360.9	285.2 J/K/mol
300.51 K	–	285.7 J/K/mol
304.76 K	–	288.6 J/K/mol
308.97 K	–	291.5 J/K/mol
310 K	370.4	292.4 J/K/mol
313 K	373.2	294.5 J/K/mol
313.16 K	–	294.6 J/K/mol
